Test [1] relates to isolated murine gastric glands of mouse (acid secretion). Nature of the test: In vitro inhibition of gastric acid secretion (14C-aminopyrine accumulation in isolated mouse gastric glands). It counts as cell-based. The settings on record: 1 h, 60 min at 37 °C, secretagogue stimulated. Here is the method: In Vitro Inhibition of Gastric Acid Secretion by Compounds of Formula I
Acid secretion is measured indirectly by the accumulation of the weak base ^14 C-aminopyrine in the isolated murine gastric glands of mouse. The assay is performed in polypropylene eppendorf tubes containing 0.5 mL of resuspended mouse gastric glands. In addition, tubes contain the tested drug, acid secretagogues (e.g. histamine, di-butyryl cyclic AMP (cAMP), carbachol) and ^14 C-aminopyrine. Tubes are incubated for 60 min. at 37 ° C. and continuously rotated. The reaction is stopped by centrifugation of the gland suspension for five min. at 1500 g. Supernatant is aspirated leaving the pellet containing intact gastric glands. The pellet is washed extensively and digested overnight in 1 mL of Protosol (Amersham). After neutralisation with acetic acid and addition of scintillation fluid, the radioactivity is counted in a beta-counter (Beckman). The amount of radioactivity trapped in the pellet corresponds directly with the amount of acid being secreted. Each experimental point is done in triplicate. In each experiment, energy independent consumption was estimated with 0.1 mM of dinitrophenol and basal acid secretion in the absence of acid stimulants. These values were then subtracted from corresponding results in order to calculate basal or secretagogue stimulated acid secretion.
Mouse glands respond to a variety of conventional secretagogues and post-receptor mediators but not to gastrin. The maximum stimulation of acid secretion is achieved with 1 mM cAMP, 0.1 mM histamine, 0.1 mM IBMX, 10 μM carbachol, 10 μM forskolin, 10 μM calcium ionophore A23187, 1 μM thapsigarin. Each experiment is repeated a number of times and all results are expressed as a % of the maximum stimulation. For the purpose of comparing the relative potency of the compounds, each experiment contains positive controls using omeprazole for post-receptor/cAMP mediated responses and ranitidine which inhibits histamine mediated acid secretion.
Using the above procedure, the IC50 value for these compounds were as follows: […]

Another test relates to gastric acid secretion. The experiment in a line: Gastric secretion study in rat (pylorus ligation). The settings on record: oral gavage, pylorus-ligated rat, 2 hours post ligation; for Average total gastric contents: Control 2.5; for Average total acid output: Control 298. The class given is in vivo, Male Sprague-Dawley rats. Here is the method: Gastric Secretion Study in Rat The objective of the study was to establish the antisecretory effects of two experimental compounds compared to Omeprazole. Male Sprague-Dawley rats (110 to 140 g in weight) were ordered from Ace Animals, Inc., Boyertown Pa. and were randomized into […] groups. The Control animals were administered carboxymethylcellulose (CMC) as the treated groups were administered the test materials in a suspension of CMC. Two groups were allotted to a reference standard of Omeprazole and were administered doses of 2 and 8 mg/kg. The other 4 dose groups were allotted to the 2 experimental compounds at doses of 8 and 32 mg/kg. All test materials were administered by oral gavage as this is the intended route in humans. Each animal was dosed using a stainless steel ball-tipped gavage needle attached to an appropriate size syringe. All doses administered were based on fasted body weights taken prior to the dosing. Two hours post drug administration, the animals were anesthetized using a short acting general anesthetic (Methoxital Sodium). The midline incision was made and the gastric duodenal area exposed. A ligature of thread was placed around the pylorus and tied tightly. This ligature around the pylorus stimulates the production of gastric acid. The incision was closed post ligation and the animal was replaced in its cage without access of food or water. All rats were euthanized 2 hours post pylorus ligation using an overdose of sodium pentobarbital. The esophagus was ligated and the intact stomach was removed and opened along the great curvature. Gastric contents were collected in a plastic cup and transferred to a 15 ml conical tube. The contents were centrifuged for approximately 10 minutes. The supernatant was decanted and the volume was measured to the nearest tenth of a milliliter. 1 ml of the gastric contents were pipetted into 4 ml of distilled water and titrated with 0.01 N sodium hydroxide to a pH of 7.0. The acidity was measured by titration and the total acid output calculated.

As a reminder, the IC50 is the point on the concentration scale where inhibition reaches its midpoint. High values mean lower potency, low ones higher potency. On to `O=C(c1cccc(Cl)c1)c1nsc(N2CCN(c3ccccn3)CC2)n1` [3-(3-chlorobenzoyl)-5-{4-[pyridin-2-yl]-piperazin-1-yl}-1,2,4-thiadiazole], for which the IC50 in test [1] is 25 µM. Moreover, the “Average total gastric contents” value turned out to be 1.9 mL in the test with gastric acid secretion (8 mg/kg) and 2.9 mL in the test on gastric acid secretion (32 mg/kg). Further, the Average total acid output with gastric acid secretion (8 mg/kg) is 159 µEq; with gastric acid secretion (32 mg/kg) it was 271 µEq.
With `COc1ccc2[nH]c([S+]([O-])Cc3ncc(C)c(OC)c3C)nc2c1` (stereo not drawn) [Omeprazole, reference compound], the “Average total gastric contents” value with gastric acid secretion (2 mg/kg) was 2.2 mL; with gastric acid secretion (8 mg/kg), 1.9 mL. For the same molecule, the Average total acid output in the test on gastric acid secretion (2 mg/kg) is 296 µEq; with gastric acid secretion (8 mg/kg) it was 164 µEq.
In test [1], `O=C(c1ccccc1)c1nsc(N2CCN(c3ccccn3)CC2)n1` [3-benzoyl-5-{4-[pyridin-2-yl]-piperazin-1-yl}-1,2,4-thiadiazole] gave an IC50 of 6 µM.
On the same count and under the same terms, for `COc1nsc(N2CCN(c3ccccn3)CC2)n1` [3-methoxy-5-{4-[pyridin-2-yl]-piperazin-1-yl}-1,2,4-thiadiazole] the value was 100 µM.
The molecule `c1ccc(-c2nsc(N3CCN(c4ccccn4)CC3)n2)cc1` [3-phenyl-5-{4-[pyridin-2-yl]-piperazin-1-yl}-1,2,4-thiadiazole] displayed an IC50 in test [1] of 4 µM. Besides, in the test with gastric acid secretion (8 mg/kg), the “Average total gastric contents” value was 2.2 mL and the Average total acid output is 223 µEq. Further, in the test on gastric acid secretion (32 mg/kg), the “Average total gastric contents” value came to 1.2 mL and the Average total acid output turned out to be 100 µEq.
Take `OC(c1ccccc1)c1nsc(N2CCN(c3ccccn3)CC2)n1` (stereo not drawn) [3-(1-hydroxy-1-phenylmethyl)-5-{4-[pyridin-2-yl]-piperazin-1-yl}-1,2,4-thiadiazole]: the IC50 in test [1] was found to be 30 µM.
In test [1], `O=C(c1ccccc1)c1nsc(N2CCN(C(c3ccccc3)c3ccc(Cl)cc3)CC2)n1` (stereo not drawn) [3-benzoyl-5-{4-[1-phenyl-1-(4-chlorophenyl)methyl]piperazin-1-yl}-1,2,4-thiadiazole] gave an IC50 of 50 µM.
